Laboratory results taken from ChEMBL document CHEMBL1156829 (Proc Natl Acad Sci U S A, 2008).
pEC50: −log10 of the molar value.

Assays:
Plasmodium falciparum [1] = test: NOVARTIS: Inhibition of Plasmodium falciparum W2 (drug-resistant) proliferation in erythrocyte-based infection assay; format: functional, organism-based; conditions: Plasmodium falciparum, W2; read-out: EC50
Plasmodium falciparum [2] = test: NOVARTIS: Inhibition of Plasmodium falciparum 3D7 (drug-susceptible) proliferation in erythrocyte-based infection assay; format: functional, organism-based; conditions: Plasmodium falciparum, 3D7
[3] = NOVARTIS: Cytotoxicity against human hepatocellular carcinoma cell line (Huh7); format: toxicity, cell-based, Huh-7; conditions: Huh7 cells (hepatocellular carcinoma cell line)

Structure (SMILES) | pEC50 (Plasmodium falciparum [1]) | pEC50 (Plasmodium falciparum [2]) | CC50 [3]
CCOC(=O)c1ccc2nc(-c3ccccc3)cc(O)c2c1 | 6.31 | 6.26 | > 100 µM
COc1cc(C)c(CCNCCCCCCNCCc2cc(OC)c(OC)cc2C)cc1OC | < 6.06 | 6.64 | > 10 µM
O=C1/C(=C/c2ccccc2)Oc2c1ccc(O)c2CN1CCCCC1 | 5.90 | < 5.90 | > 10 µM
COc1cccc(-c2ccc(O)c(CNC3CCCCCCC3)c2)n1 | 7.69 | 7.14 | 23.1 µM
COc1ccc(-c2cc(C(F)(F)F)n3nc(C(=O)NC4CCCCC4)c(Cl)c3n2)cc1OC | 7.46 | < 6.36 | > 4.02 µM
CC1CCCCN1CCCNc1ncc(C(=O)NCc2ccccc2)c(NCCc2ccccc2)n1 (stereo not drawn) | < 6.06 | 6.61 | > 10 µM
CCCn1c(SCCNC(=O)NCC)nc(-c2ccccc2)c1-c1ccccc1 | < 5.99 | < 5.85 | > 10 µM
COc1cc(OC)cc(C(=O)N(C)CCCNc2ccnc3cc(Cl)ccc23)c1 | 6.93 | 6.85 | 4.7 µM
CC(=O)Nc1ccc2c(c1)C(=O)N(C(CC(C)(C)C)C(=O)NC1CCCCC1)[C@@H](CCC(=O)O)C(=O)N2 (stereo partly drawn) | 7.29 | 6.06 | 6.18 µM
c1ccc(CN2CCC(NCc3c[nH]c4ccccc34)CC2)cc1 | 6.92 | 6.68 | > 10 µM
CN(C)/C=C1\Oc2ccccc2N=C1Cl | 6.88 | 6.82 | > 10 µM
CC1(CNCc2ccccc2O)C2CC3CC(C2)CC1C3 (stereo not drawn) | 7.49 | 6.84 | > 10 µM
CCOC(=O)c1cnc2ccc(C)cc2c1NCCCN1CCOCC1 | 6.08 | 6.05 | > 100 µM
Cc1cccc(-n2c(CNC(=O)c3ccc(S(=O)(=O)N4CCCCC4)cc3)nnc2SCC(=O)Nc2nccs2)c1 | 5.66 | 5.38 | 67.1 µM
Cc1ccc(N(C(=O)c2snc(C(=O)NC3CCCCC3)c2N)C(C(=O)NCCc2ccccc2)c2ccc(O)cc2)c(C)c1 (stereo not drawn) | 6.17 | 5.83 | > 100 µM
CC(C)(C)c1ccc(CNC(=O)C(Cc2ccc(O)cc2)c2ccccc2)cc1 (stereo not drawn) | 5.49 | < 5.06 | 53.2 µM
CCCCc1ccc(C(=O)NCCCCNc2ccnc3cc(Cl)ccc23)cc1 | 6.51 | 6.66 | > 10 µM
COc1cc(C(=O)Nc2cnc3ccccc3c2)ccc1-n1cnnn1 | 5.32 | 5.40 | > 100 µM
CCOC(=O)c1c(C)n(-c2ccccc2)c2ccc(O)cc12 | 5.58 | 5.77 | > 100 µM
Cn1nc(C(=O)NCc2ccc(F)cc2)c2c1CCC(N1CCC(CO)CC1)C2 (stereo not drawn) | < 6.34 | < 5.90 | > 10 µM
COc1ccc(CN2CCN(C(=O)c3sc4ncn(Cc5ccccc5F)c(=O)c4c3C)CC2)c(OC)c1OC | < 5.90 | 6.00 | > 10 µM
COc1cccc(CNCCCCCCCCCCCCNCc2cccc(OC)c2O)c1O | 5.99 | 6.09 | 53.5 µM

Structure (SMILES) | pEC50 (Plasmodium falciparum [1]) | pEC50 (Plasmodium falciparum [2]) | CC50 [3]
OC(CCN1CCN(C(c2ccccc2)c2ccccc2)CC1)c1ccccc1 (stereo not drawn) | 5.99 | 5.33 | > 100 µM
O=C(CCCCCN1C(=O)c2cccc3cccc(c23)C1=O)NO | 6.79 | 6.25 | 3.32 µM
COc1ccccc1C(c1c(C)n[nH]c1O)c1c(C)n[nH]c1O | < 5.96 | < 5.90 | > 10 µM
CC1=C(C(=O)OC2CCCCC2)C(c2ccc(Cl)c(Cl)c2)C2=C(CCCC2=O)N1 (stereo not drawn) | < 4.90 | 6.13 | > 100 µM
CCC(CO)NCC(O)Cn1c2ccc(Br)cc2c2cc(Br)ccc21 (stereo not drawn) | 6.90 | 6.28 | 11.2 µM
COc1ccc(CN(Cc2cc3cccc(C)c3[nH]c2=O)C(=S)NC2CCCCC2)cc1 | 6.31 | < 5.90 | > 10 µM
CCOC(=O)N1CCC(NC(=O)c2c(C)nn(-c3cccc(C)c3)c2-n2cccc2)CC1 | 5.97 | 6.55 | > 100 µM
Cc1ccc(S(=O)(=O)Oc2ccc(C=NN=C(N)N)cc2)cc1 | 6.20 | 6.81 | 14.1 µM
CCC(C)(C)c1ccc(OCCOCC[n+]2ccccc2)c(C(C)(C)CC)c1 | 6.07 | 6.02 | 12.2 µM
O=[N+]([O-])c1cccc(C(O)CNCc2ccc3c(c2)OCO3)c1 (stereo not drawn) | 6.96 | 5.99 | > 100 µM
CCOc1ccc(C(=O)N2CCN(Cc3ccccc3)CC2)cc1 | 6.49 | < 5.44 | > 100 µM
O=C1CSC2=NCN(c3cccc(Cl)c3)CN12 | 5.90 | < 4.90 | > 100 µM
COc1ccc(NC(=O)/C=C/c2ccccc2Cl)cc1 | < 5.94 | < 5.90 | > 10 µM
Cc1onc(-c2ccccc2)c1C(=O)N1CCC(CNc2c(-c3ccc(F)cc3)nc3ccccn23)CC1 | 6.75 | 6.17 | 45 µM
CCOC(=O)C1=C(C)NC2=C(C(=O)CC(c3ccc(OC)c(OC)c3)C2)C1c1cccc(Cl)c1 (stereo not drawn) | 7.25 | 7.05 | > 74.6 µM
COc1c([N+](=O)[O-])cc2c(c1Br)OC1(C=C2)N(C)c2ccccc2C1(C)C (stereo not drawn) | < 5.80 | 5.76 | > 10 µM
COc1ccc(-c2cnc3ccc(NCc4cccc(Cl)c4)nn23)cn1 | 5.95 | 6.09 | 68.9 µM
COc1ccc(CC(=O)NCCCCNc2ccnc3cc(Cl)ccc23)cc1 | 6.46 | 6.26 | 4.5 µM
O=C(C1CCN(c2cccc3c2C(=O)N(C2CC2)C3=O)CC1)N1CCC(O)(c2ccc(Cl)cc2)CC1 | < 5.99 | < 5.90 | > 10 µM
CCN1CC=C2C(C#N)=C(N)C(C#N)(C#N)C(c3ccc(C)s3)C2C1 (stereo not drawn) | < 5.90 | < 6.06 | > 10 µM
N#CC(C#N)C(/C(Sc1ccc([N+](=O)[O-])cc1)=C(/O)c1ccccc1)c1cccs1 (stereo not drawn) | < 5.90 | < 6.39 | > 10 µM
Cc1cc(Nc2ccc(Br)c(C)c2)n2nc(C)nc2n1 | 7.34 | 7.28 | > 100 µM

Structure (SMILES) | pEC50 (Plasmodium falciparum [1]) | pEC50 (Plasmodium falciparum [2]) | CC50 [3]
O=C(NCCc1ccccc1)C(=O)NN=Cc1ccccc1 | < 7.09 | < 5.90 | > 10 µM
O=C(C[n+]1cc(-c2ccc(Cl)cc2)n2c1CCC2)c1ccc(C2CCCCC2)cc1 | 6.03 | 5.88 | 35.5 µM
Cc1ccc(S(=O)(=O)NC(Cc2ccccc2)C(=O)N2CCC(C3CCN(C(=O)c4ccc([N+](=O)[O-])o4)CC3)CC2)cc1 (stereo not drawn) | < 5.78 | 5.72 | > 10 µM
Cc1nc(-c2ccccc2)nc(C(=O)N2CCN(S(=O)(=O)/C=C/c3ccccc3)C(C)C2)c1C(=O)OCC(C)C (stereo not drawn) | 6.11 | 6.03 | > 10 µM
COc1ccc(C2=C(c3ccc(OC)cc3)C3(c4ccccc4)C(=O)C2(c2ccccc2)C2C(=O)N(c4ccc(C)cc4)C(=O)C23)cc1 (stereo not drawn) | 5.83 | < 4.90 | > 100 µM
C=CCSc1ncc(-c2ccc(Cl)cc2)n1C | 5.75 | < 4.90 | > 100 µM
Cn1c2ccncc2c2cc([N+](=O)[O-])ccc21 | 6.03 | 6.08 | 31.4 µM
NC(=O)NN=C1c2cc(S(=O)(=O)NCc3ccco3)ccc2-c2ccc(S(=O)(=O)NCc3ccco3)cc21 | < 5.81 | 5.93 | > 10 µM
Cc1ccc(N=Nc2nc3ccccc3n2C)c(C)c1 | 7.62 | 7.06 | 3.6 µM
Cc1cccc(NC(=O)Nc2cccnc2)c1NC(=O)Nc1cccnc1 | < 5.98 | < 5.90 | > 10 µM
Sc1nnc(-c2ccncc2)n1CCc1ccccc1 | 5.97 | < 5.13 | > 100 µM
CCOc1ccc(-n2nc(C(=O)NCCCN(C)Cc3ccccc3)c3ccccc3c2=O)cc1 | 4.99 | < 4.95 | > 100 µM
CCCCC(=O)NC(c1cccc([N+](=O)[O-])c1)c1ccc2cccnc2c1O (stereo not drawn) | 6.57 | 6.42 | 18.8 µM
O=C(Cc1ccccc1)Nc1ccc(C(=O)Nc2ccc(-c3nc4ccc(NC(=O)c5ccc(NC(=O)Cc6ccccc6)cc5)c(Cl)c4[nH]3)cc2)cc1 | 5.22 | 5.10 | 40 µM
O=C1C(=Cc2cc([N+](=O)[O-])cc(Br)c2O)C(=O)c2ccccc21 | < 6.06 | < 5.90 | > 10 µM
CCNC(=O)[C@@H]1C[C@@H](NC2C3CC4CC(C3)CC2C4)CN1Cc1cccc(OC)c1OC (stereo partly drawn) | 5.34 | < 4.90 | 72.2 µM
c1cc(NCc2ccc3c(c2)OCO3)n2ncc(-c3ccoc3)c2n1 | < 5.99 | < 5.90 | > 10 µM
C=CCn1c(=O)c(C(=O)NCC[N+](CC)(CC)CC=C)c(O)c2ccccc21 | 6.41 | 5.95 | > 100 µM
CC(C)NCC(O)c1ccc2ccccc2c1 (stereo not drawn) [PRONETALOL] | 6.44 | 6.34 | 13.1 µM
CCOC(=O)c1ccc(N2CCN(c3ccc(F)cc3)CC2)c(NC(=O)Nc2ccccc2)c1 | < 6.07 | < 5.90 | > 10 µM
CCc1n(C)c2ccccc2[n+]1CC(=O)c1ccc(Br)cc1 | 5.96 | 5.78 | > 10 µM
O=C(CCl)NCCNc1ncc(C(F)(F)F)cc1Cl | 6.21 | 6.34 | 17.8 µM
